{
  "source": "patent US12077503B2",
  "about": "“Substituted cyclic amides and their use as herbicides” (FMC CORPORATION, priority 2015, dated 2024)",
  "format_in_all_cases": "in vivo",
  "key": {"[1]": {"test_system": "giant foxtail (Setaria faberii)", "test": "Test A preemergence", "settings": "Setaria faberi, pre-emergence, 240 h, Preemergence", "how_it_was_run": "(§1)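 Compounds were formulated in a non-phytotoxic solvent mixture with surfactant and applied as a preemergence directed soil spray after seeding, or sprayed postemergence over plants 2 to 10 cm tall at the one- to two-leaf stage. Evaluation after about 10 d compared treated with untreated controls, using a scale from 0 (no effect) to 100 (complete control).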"}, "[2]": {"test_system": "ragweed (common ragweed, Ambrosia elatior)", "test": "Test A preemergence", "settings": "Ambrosia artemisiifolia, pre-emergence, 240 h, Preemergence", "how_it_was_run": "as §1"}, "[3]": {"test_system": "barnyardgrass (Echinochloa crus-galli)", "test": "Test A preemergence", "settings": "Echinochloa crus-galli, pre-emergence, 240 h, Preemergence", "how_it_was_run": "as §1"}, "[4]": {"test_system": "pigweed (Amaranthus retroflexus)", "test": "Test A preemergence", "settings": "Amaranthus retroflexus, pre-emergence, 240 h, Preemergence"}, "[5]": {"test_system": "ryegrass, Italian (Italian ryegrass, Lolium multiflorum)", "test": "Test A preemergence", "settings": "Lolium multiflorum, pre-emergence, 240 h, Preemergence", "how_it_was_run": "as §1"}, "Kochia (Kochia scoparia) [6]": {"test_system": "Kochia (Kochia scoparia)", "test": "Test A preemergence", "settings": "Bassia scoparia, pre-emergence, 240 h, Preemergence", "how_it_was_run": "as §1"}, "[7]": {"test_system": "ducksalad (Heteranthera limosa)", "test": "Test B flooded paddy test", "settings": "Heteranthera limosa, 360 h, Flood, 250 g ai/ha; visually evaluated after 13 to 15 d; read-out: Plant response rating, Ducksalad (0 to 100 scale where 0 is no effect and 100 is complete control)", "how_it_was_run": "(§2)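 Plants at 2-leaf stage flooded to 3 cm above soil, with compounds applied directly to paddy water and that depth maintained. Plants kept in greenhouse 13–15 d. Visual rating versus controls on a 0 (no effect) to 100 (complete control) scale.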"}, "rice (Oryra sativa)": {"test_system": "rice (Oryra sativa)", "test": "Test B flooded paddy test", "settings": "Oryza sativa, 360 h, Flood, 250 g ai/ha; visually evaluated after 13 to 15 d; read-out: Plant response rating, Rice (0 to 100 scale where 0 is no effect and 100 is complete control)", "how_it_was_run": "as §2"}, "[8]": {"test_system": "barnyardgrass (Echinochloa crus-galli)", "test": "Test B flooded paddy test", "settings": "Echinochloa crus-galli, 360 h, Flood, 250 g ai/ha; visually evaluated after 13 to 15 d; read-out: Plant response rating, Barnyardgrass (0 to 100 scale where 0 is no effect and 100 is complete control)", "how_it_was_run": "as §2"}, "[9]": {"test_system": "sedge, umbrella (small-flower umbrella sedge, Cyperus difformis)", "test": "Test B flooded paddy test", "settings": "Cyperus difformis, 360 h, Flood, 250 g ai/ha; visually evaluated after 13 to 15 d; read-out: Plant response rating, Sedge, Umbrella (0 to 100 scale where 0 is no effect and 100 is complete control)", "how_it_was_run": "as §2"}, "[10]": {"test_system": "giant foxtail (Setaria faberii)", "test": "Test A postemergence", "settings": "Setaria faberi, post-emergence, 240 h, Postemergence", "how_it_was_run": "as §1"}, "[11]": {"test_system": "ragweed (common ragweed, Ambrosia elatior)", "test": "Test A postemergence", "settings": "Ambrosia artemisiifolia, post-emergence, 240 h, Postemergence", "how_it_was_run": "as §1"}, "corn (Zea mays)": {"test_system": "corn (Zea mays)", "test": "Test A postemergence", "settings": "Zea mays, post-emergence, 240 h, Postemergence", "how_it_was_run": "as §1"}, "[12]": {"test_system": "barnyardgrass (Echinochloa crus-galli)", "test": "Test A postemergence", "settings": "Echinochloa crus-galli, post-emergence, 240 h, Postemergence", "how_it_was_run": "as §1"}, "[13]": {"test_system": "pigweed (Amaranthus retroflexus)", "test": "Test A postemergence", "settings": "Amaranthus retroflexus, post-emergence, 240 h, Postemergence", "how_it_was_run": "as §1"}, "[14]": {"test_system": "ryegrass, Italian (Italian ryegrass, Lolium multiflorum)", "test": "Test A postemergence", "settings": "Lolium multiflorum, post-emergence, 240 h, Postemergence", "how_it_was_run": "as §1"}, "Kochia (Kochia scoparia) [15]": {"test_system": "Kochia (Kochia scoparia)", "test": "Test A postemergence", "settings": "Bassia scoparia, post-emergence, 240 h, Postemergence", "how_it_was_run": "as §1"}, "[16]": {"test_system": "Galium (catchweed bedstraw, Galium aparine)", "test": "Test A postemergence", "settings": "Galium, post-emergence, 240 h, Postemergence", "how_it_was_run": "as §1"}, "[17]": {"test_system": "wheat (Triticum aestivum)", "test": "Test A postemergence", "settings": "Triticum aestivum, post-emergence, 240 h, Postemergence", "how_it_was_run": "as §1"}, "[18]": {"test_system": "blackgrass (Alopecurus myosuroides)", "test": "Test A postemergence", "settings": "Alopecurus myosuroides, post-emergence, 240 h, Postemergence", "how_it_was_run": "as §1"}},
  "data": [
    {"compound": "CN1C[C@H](c2cccc(C(F)(F)F)c2)[C@@H](C(=O)Nc2cccnc2F)C1=O", "note": "[Compound 1397]", "values": [
      {"measurement": "pest or weed control at 31 g/ha", "setting": "[1]; 31 g ai/ha, 0 to 100 scale where 0 is no effect and 100 is complete control, read-out: Foxtail, Giant plant response rating", "result": 100, "unit": "%"},
      {"measurement": "pest or weed control at 125 g/ha", "setting": "[1]; 125 g ai/ha, 0 to 100 scale (0 no effect, 100 complete control), read-out: Plant response rating, Foxtail, Giant", "result": 100, "unit": "%"},
      {"measurement": "pest or weed control at 31 g/ha", "setting": "[2]; 31 g ai/ha, 0 to 100 scale where 0 is no effect and 100 is complete control, read-out: Ragweed plant response rating", "result": 0, "unit": "%"},
      {"measurement": "pest or weed control at 125 g/ha", "setting": "[2]; 125 g ai/ha, 0 to 100 scale (0 no effect, 100 complete control), read-out: Plant response rating, Ragweed", "result": 0, "unit": "%"},
      {"measurement": "pest or weed control at 31 g/ha", "setting": "[3]; 31 g ai/ha, 0 to 100 scale where 0 is no effect and 100 is complete control, read-out: Barnyardgrass plant response rating", "result": 100, "unit": "%"},
      {"measurement": "pest or weed control at 125 g/ha", "setting": "[3]; 125 g ai/ha, 0 to 100 scale (0 no effect, 100 complete control), read-out: Plant response rating, Barnyardgrass", "result": 100, "unit": "%"},
      {"measurement": "pest or weed control at 31 g/ha", "setting": "[4]; 31 g ai/ha, 0 to 100 scale where 0 is no effect and 100 is complete control, read-out: Pigweed plant response rating", "result": 0, "unit": "%"},
      {"measurement": "pest or weed control at 125 g/ha", "setting": "[4]; 125 g ai/ha, 0 to 100 scale (0 no effect, 100 complete control), read-out: Plant response rating, Pigweed", "result": 0, "unit": "%"},
      {"measurement": "pest or weed control at 31 g/ha", "setting": "[5]; 31 g ai/ha, 0 to 100 scale where 0 is no effect and 100 is complete control, read-out: Ryegrass, Italian plant response rating", "result": 50, "unit": "%"},
      {"measurement": "pest or weed control at 125 g/ha", "setting": "[5]; 125 g ai/ha, 0 to 100 scale (0 no effect, 100 complete control), read-out: Plant response rating, Ryegrass, Italian", "result": 70, "unit": "%"},
      {"measurement": "pest or weed control at 31 g/ha", "setting": "Kochia (Kochia scoparia) [6]; 31 g ai/ha, 0 to 100 scale where 0 is no effect and 100 is complete control, read-out: Kochia plant response rating", "result": 0, "unit": "%"},
      {"measurement": "pest or weed control at 125 g/ha", "setting": "Kochia (Kochia scoparia) [6]; 125 g ai/ha, 0 to 100 scale (0 no effect, 100 complete control), read-out: Plant response rating, Kochia", "result": 60, "unit": "%"},
      {"measurement": "pest or weed control at 250 g/ha", "setting": "[7]", "result": 100, "unit": "%"},
      {"measurement": "pest or weed control at 250 g/ha", "setting": "rice (Oryra sativa)", "result": 0, "unit": "%"},
      {"measurement": "pest or weed control at 250 g/ha", "setting": "[8]", "result": 75, "unit": "%"},
      {"measurement": "pest or weed control at 250 g/ha", "setting": "[9]", "result": 0, "unit": "%"},
      {"measurement": "pest or weed control at 31 g/ha", "setting": "[10]; 31 g ai/ha, 0 is no effect, 100 is complete control, read-out: Foxtail, Giant plant response rating (0 to 100 scale)", "result": 80, "unit": "%"},
      {"measurement": "pest or weed control at 125 g/ha", "setting": "[10]; 125 g ai/ha, visual injury after approx. 10 d, 0 to 100 scale, 0 no effect, 100 complete control, read-out: Plant response rating, Foxtail, Giant", "result": 90, "unit": "%"},
      {"measurement": "pest or weed control at 31 g/ha", "setting": "[11]; 31 g ai/ha, 0 is no effect, 100 is complete control, read-out: Ragweed plant response rating (0 to 100 scale)", "result": 0, "unit": "%"},
      {"measurement": "pest or weed control at 125 g/ha", "setting": "[11]; 125 g ai/ha, visual injury after approx. 10 d, 0 to 100 scale, 0 no effect, 100 complete control, read-out: Plant response rating, Ragweed", "result": 0, "unit": "%"},
      {"measurement": "plant injury at 31 g/ha", "setting": "corn (Zea mays); 31 g ai/ha, 0 is no effect, 100 is complete control, read-out: Corn plant response rating (0 to 100 scale)", "result": 50, "unit": "%"},
      {"measurement": "Corn plant response rating (crop injury, 0 = no effect, 100 = complete kill) at 125 g/ha", "setting": "corn (Zea mays); 125 g ai/ha, visual injury after approx. 10 d, 0 to 100 scale, 0 no effect, 100 complete control", "result": 90, "unit": "%"},
      {"measurement": "pest or weed control at 31 g/ha", "setting": "[12]; 31 g ai/ha, 0 is no effect, 100 is complete control, read-out: Barnyardgrass plant response rating (0 to 100 scale)", "result": 90, "unit": "%"},
      {"measurement": "pest or weed control at 125 g/ha", "setting": "[12]; 125 g ai/ha, visual injury after approx. 10 d, 0 to 100 scale, 0 no effect, 100 complete control, read-out: Plant response rating, Barnyardgrass", "result": 90, "unit": "%"},
      {"measurement": "pest or weed control at 31 g/ha", "setting": "[13]; 31 g ai/ha, 0 is no effect, 100 is complete control, read-out: Pigweed plant response rating (0 to 100 scale)", "result": 0, "unit": "%"},
      {"measurement": "pest or weed control at 125 g/ha", "setting": "[13]; 125 g ai/ha, visual injury after approx. 10 d, 0 to 100 scale, 0 no effect, 100 complete control, read-out: Plant response rating, Pigweed", "result": 0, "unit": "%"},
      {"measurement": "pest or weed control at 31 g/ha", "setting": "[14]; 31 g ai/ha, 0 is no effect, 100 is complete control, read-out: Ryegrass, Italian plant response rating (0 to 100 scale)", "result": 50, "unit": "%"},
      {"measurement": "pest or weed control at 125 g/ha", "setting": "[14]; 125 g ai/ha, visual injury after approx. 10 d, 0 to 100 scale, 0 no effect, 100 complete control, read-out: Plant response rating, Ryegrass, Italian", "result": 40, "unit": "%"},
      {"measurement": "pest or weed control at 31 g/ha", "setting": "Kochia (Kochia scoparia) [15]; 31 g ai/ha, 0 is no effect, 100 is complete control, read-out: Kochia plant response rating (0 to 100 scale)", "result": 0, "unit": "%"},
      {"measurement": "pest or weed control at 125 g/ha", "setting": "Kochia (Kochia scoparia) [15]; 125 g ai/ha, visual injury after approx. 10 d, 0 to 100 scale, 0 no effect, 100 complete control, read-out: Plant response rating, Kochia", "result": 0, "unit": "%"},
      {"measurement": "pest or weed control at 31 g/ha", "setting": "[16]; 31 g ai/ha, 0 is no effect, 100 is complete control, read-out: Galium plant response rating (0 to 100 scale)", "result": 20, "unit": "%"},
      {"measurement": "pest or weed control at 125 g/ha", "setting": "[16]; 125 g ai/ha, visual injury after approx. 10 d, 0 to 100 scale, 0 no effect, 100 complete control, read-out: Plant response rating, Galium", "result": 60, "unit": "%"},
      {"measurement": "plant injury at 31 g/ha", "setting": "[17]; 31 g ai/ha, 0 is no effect, 100 is complete control, read-out: Wheat plant response rating (0 to 100 scale)", "result": 40, "unit": "%"},
      {"measurement": "plant injury at 125 g/ha", "setting": "[17]; 125 g ai/ha, visual injury after approx. 10 d, 0 to 100 scale, 0 no effect, 100 complete control, read-out: Plant response rating, Wheat", "result": 70, "unit": "%"},
      {"measurement": "pest or weed control at 31 g/ha", "setting": "[18]; 31 g ai/ha, 0 is no effect, 100 is complete control, read-out: Blackgrass plant response rating (0 to 100 scale)", "result": 40, "unit": "%"},
      {"measurement": "pest or weed control at 125 g/ha", "setting": "[18]; 125 g ai/ha, visual injury after approx. 10 d, 0 to 100 scale, 0 no effect, 100 complete control, read-out: Plant response rating, Blackgrass", "result": 70, "unit": "%"}
    ]}
  ]
}
